Experimental data reported in ChEMBL document CHEMBL3400004, “Novel fused tetrathiocines as antivirals that target the nucleocapsid zinc finger containing protein of the feline immunodeficiency virus (FIV) as a model of HIV infection” (Bioorg Med Chem Lett, 2015).

How the values were obtained:
[1] = Cytotoxicity against cat CRFK cells assessed as cell viability at 10 uM after 24 hrs by MTT assay; assay type: cell-based, Felis catus; settings: read-out: Activity
[2] = system: Feline immunodeficiency virus; experiment: Antiviral activity against Feline immunodeficiency virus infected in cat FL-4 cells assessed as inhibition of viral replication after 7 days by quantitative RT-PCR analysis; assay type: functional, organism-based; settings: FL-4, 168 h
[3] = Therapeutic index, ratio of CC50 for cat FL-4 cells to EC50 for Feline immunodeficiency virus infected in cat FL-4 cells; assay type: cell-based; settings: read-out: Ratio CC50/EC50
[4] = Cytotoxicity against IL2-independent cat FL-4 cells assessed as reduction in cell viability after 7 days by MTT assay; assay type: cell-based, Felis catus; settings: IL2-independent FL-4 cells

| SMILES | viability at 24 h, 10 µM [1] | EC50 [2] | selectivity ratio [3] | CC50 at 168 h [4] |
| --- | --- | --- | --- | --- |
| COc1cc2c(cc1OC)SSc1cc(OC)c(OC)cc1SS2 | 75.3% | 0.0309 µM | > 3240 | > 100 µM |
| c1c2c(cc3c1SSc1cc4c(cc1SS3)OCO4)OCO2 | 77% | 0.0932 µM | 62.1 | 5.79 µM |
| c1c2c(cc3c1SSc1cc4c(cc1SS3)OCCO4)OCCO2 | 91.1% | 0.0689 µM | > 1450 | > 100 µM |
| CCN(CC)c1sc(N(CC)CC)c2c1SSc1c(N(CC)CC)sc(N(CC)CC)c1SS2 | > 100% | > 100 µM | 1 | > 100 µM |
| Cn1c(Cl)c2c(c1Cl)SSc1c(c(Cl)n(C)c1Cl)SS2 | > 100% | 0.205 µM | > 489 | > 100 µM |
| CCn1c(Cl)c2c(c1Cl)SSc1c(c(Cl)n(CC)c1Cl)SS2 | > 100% | > 100 µM | 1 | > 100 µM |
| CC(C)(C)n1cc2c(c1)SSc1cn(C(C)(C)C)cc1SS2 | > 100% | 14.5 µM | > 6.9 | > 100 µM |
| CCn1c(C)c2c(c1C)SSc1c(c(C)n(CC)c1C)SS2 | > 100% | 60.7 µM | 1.6 | > 100 µM |
| Cc1c2c(c(C)n1Cc1ccccc1)SSc1c(c(C)n(Cc3ccccc3)c1C)SS2 | > 100% | 3.08 µM | 18.9 | 58.2 µM |
| Cn1c2c(c3ccccc31)SSc1c(c3ccccc3n1C)SS2 | > 100% | 0.0429 µM | > 2330 | > 100 µM |
| Cc1nnc(C(=O)NC(C)(C)c2nc(C(=O)NCc3ccc(F)cc3)c(O)c(=O)n2C)o1 [RALTEGRAVIR] | > 100% | – | > 10000 | > 100 µM |
| Cc1cn([C@H]2C[C@H](N=[N+]=[N-])[C@@H](CO)O2)c(=O)[nH]c1=O [ZIDOVUDINE] | > 100% | – | > 18.8 | > 100 µM |
